These results are taken from patent US12655185B2, “Peptide inhibitors of interleukin-23 and their use to treat inflammatory diseases” (Protagonist Therapeutics, Inc., priority 2016, dated 2026).

Bridge positions count the residues as written; N and C are the ends. Peptide text beside a SMILES is read from it.

The target of test [1] is T1, IL-23 binding to IL23R_huFC (human IL-23R) (Homo sapiens, UniProt P29460+Q9NPF7).
T1 sequence (Q9NPF7 20-189): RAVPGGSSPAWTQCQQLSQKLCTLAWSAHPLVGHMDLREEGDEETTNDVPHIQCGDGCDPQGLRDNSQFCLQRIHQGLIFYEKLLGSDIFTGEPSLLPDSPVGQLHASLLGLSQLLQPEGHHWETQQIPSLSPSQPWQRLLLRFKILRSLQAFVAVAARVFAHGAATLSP
T1 sequence (P29460 23-328): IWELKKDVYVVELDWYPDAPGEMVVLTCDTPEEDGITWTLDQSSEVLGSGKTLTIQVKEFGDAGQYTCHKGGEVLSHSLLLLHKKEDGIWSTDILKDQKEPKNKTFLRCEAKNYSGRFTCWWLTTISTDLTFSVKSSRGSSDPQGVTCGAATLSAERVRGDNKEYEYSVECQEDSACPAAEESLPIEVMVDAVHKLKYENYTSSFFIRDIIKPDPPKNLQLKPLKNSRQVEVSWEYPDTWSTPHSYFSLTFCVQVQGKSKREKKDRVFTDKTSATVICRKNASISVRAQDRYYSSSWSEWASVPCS
Description: IL23-IL23R Competitive Binding ELISA. As to conditions: inhibition of IL-23/IL-23R binding; IL-23 0.9 nM; class symbols; read-out: IC50 IL23R_huFC. As to the method:
Immulon® 4HBX plate was coated with 200 ng/well of IL23R_huFC and incubated overnight at 4° C. […] Serial dilutions of test peptides and IL-23 at a final concentration of 0.9 nM diluted in PBS were added to each well and incubated for 2 hours at room temperature. After the wells were washed, bound IL-23 was detected by incubation with 50 ng/well of goat anti-p40 polyclonal antibodies (R&D Systems #AF309) diluted in PBS for 1 hour at room temperature. The wells were again washed four times with PBST. […] The plate was finally washed as above. Signals were visualized with TMB One Component HRP Membrane Substrate, quenched with 2 M sulfuric acid and read spectrophotometrically at 450 nm.
A general note: In an ELISA, binding on a coated surface is turned into a signal by an enzyme label.

For test [2], the target named is T2, IL-23 binding to human IL-12Rβ1_huFC (Homo sapiens, UniProt P29460+Q9NPF7).
T2 sequence (Q9NPF7 20-189): T1 sequence (Q9NPF7 20-189)
T2 sequence (P29460 23-328): T1 sequence (P29460 23-328)
In words: Human IL23/IL12Rβ1 huFc ELISA. As to conditions: result in words. The protocol:
The ability of Peptide 10 to block binding of IL-23 to IL-12Rβ1 or binding of IL-12 to IL-12Rβ1 was also determined. Human IL-12Rβ1 ELISA assays were performed as follows: an assay plate was coated with 100 ng/well of human IL-12Rβ1_huFC and incubated overnight at 4° C. The wells were washed, blocked, and washed again. Serial dilutions of test peptides and either IL-23 or IL-12 at a fixed concentration corresponding to EC50 values were added to each well, and incubated for 2 hours at room temperature. After the wells were washed, bound IL-23 were detected with goat anti-p40 polyclonal antibodies followed by an HRP conjugated donkey anti-goat IgG, and bound IL-12 were detected with a biotin conjugated anti-p40 monoclonal antibody followed by HRP conjugated streptavidin. Signals were visualized with TMB One Component HRP Membrane Substrate and quenched with 2 M sulfuric acid.

Test [3] concerns human IL-23-dependent release of IL-17 from mouse splenocytes. Description: Mouse splenocyte assay. It counts as cell-based. As to conditions: IL-17A release; IL-23 20 ng/mL; 67 hours. The protocol:
Frozen mouse splenocytes (Hooke Lab), suspended in RPMI Medium 1640 (Life technologies #22400-089) supplemented with 10% heat inactivated FBS (Life technologies #16140-071), 1×MEM Non-Essential Amino Acid Solution (Life technologies #11140-050), 1 mM sodium pyruvate (Life technologies #11360-070), 100 units of Penicillin-Streptomycin (Life technologies #15140-122, 0.05 mM 2-mercaptoethanol (Life technologies #21985-023) and recombinant human IL-2 (R&D Systems #202-IL-010/CF), were seeded at 4×10E5 cells/well in a 96 well tissue culture plate. Serial dilutions of test peptides and IL-23 at a final concentration of 20 ng/mL were preincubated in a separate assay plate for 60 minutes at 37° C. in a 5% CO2 humidified incubator. Preincubated samples were then added to the culture plate containing splenocytes and incubated for an additional 67 hours at 37° C. in a 5% CO2 humidified incubator. A sandwich ELISA kit for mouse IL17A (Biolegend #436204) was used to measure the amount of IL-17A in each sample supernatants, according to manufacturer's instructions.

Broadly, the IC50 is the midpoint of a concentration-inhibition curve. For `CC[C@H](C)[C@@H]1NC(=O)[C@H](CCCCN)NC(=O)[C@H](C)NC(=O)[C@H](Cc2c[nH]c3ccccc23)NC(=O)[C@H](C)NC(=O)[C@H](CCC(N)=O)NC(=O)[C@H](CCC(=O)O)NC(=O)[C@H](CCC(N)=O)NC(=O)[C@H](CC(N)=O)NC(=O)[C@H](CC(C)C)NC(=O)[C@H](CC(N)=O)NC(=O)[C@@H]2CCCN2C(=O)[C@H](CC(=O)O)NC(=O)[C@H](C(C)C)NC(=O)CNC(=O)[C@H](C)NC(=O)[C@H](CCC(=O)O)NC(=O)[C@H](CO)NC(=O)[C@H](CCSC)NC(=O)[C@H](CCCNC(=N)N)NC(=O)[C@H](CCCNC(=N)N)NC(=O)[C@H](CC(C)C)NC(=O)[C@@H](NC(=O)[C@H](CCC(N)=O)NC(=O)[C@H](CCSC)NC(=O)[C@H](CC(N)=O)NC(=O)[C@H](Cc2ccccc2)NC(C)=O)CSSC[C@@H](C(N)=O)NC(=O)[C@H](CC(=O)O)NC(=O)[C@H](CC(=O)O)NC(=O)[C@H](CCSC)NC(=O)[C@H]([C@@H](C)CC)NC(=O)[C@H](CO)NC(=O)[C@H](CCCCN)NC1=O` [Peptide 19] (Ac-FNMQCLRRMSEAGVDPNLNQEQAWAKIKSIMDDC-NH2; disulfide 5-34), the IC50 in test [1] lay within 1 to 10 µM.

Turning to `CC[C@H](C)[C@@H]1NC(=O)[C@H](CCCCN)NC(=O)[C@H](C)NC(=O)[C@H](C)NC(=O)[C@H](CCCNC(=N)N)NC(=O)[C@H](CCC(N)=O)NC(=O)[C@H](CCC(=O)O)NC(=O)[C@H](CCC(N)=O)NC(=O)[C@H](CC(N)=O)NC(=O)[C@H](CC(C)C)NC(=O)[C@H](CC(N)=O)NC(=O)[C@@H]2CCCN2C(=O)[C@H](CC(=O)O)NC(=O)[C@H](C(C)C)NC(=O)CNC(=O)[C@H](C)NC(=O)[C@H](CCC(=O)O)NC(=O)[C@H](CO)NC(=O)[C@H](CCSC)NC(=O)[C@H](CCCNC(=N)N)NC(=O)[C@H](CCCNC(=N)N)NC(=O)[C@H](CC(C)C)NC(=O)[C@@H](NC(=O)[C@H](CCC(N)=O)NC(=O)[C@H](CCSC)NC(=O)[C@H](CC(N)=O)NC(=O)[C@H](Cc2ccccc2)NC(C)=O)CSSC[C@@H](C(N)=O)NC(=O)[C@H](CC(=O)O)NC(=O)[C@H](CC(=O)O)NC(=O)[C@H](CCSC)NC(=O)[C@H]([C@@H](C)CC)NC(=O)[C@H](CO)NC(=O)[C@H](CCCCN)NC1=O` [Peptide 20] (Ac-FNMQCLRRMSEAGVDPNLNQEQRAAKIKSIMDDC-NH2; disulfide 5-34), the IC50 in test [1] lay in the range of 1 to 10 µM. Still for that read-out and setting: in the case of `CC[C@H](C)[C@@H]1NC(=O)[C@H](CO)NC(=O)[C@H](CCCCN)NC(=O)[C@H](C)NC(=O)[C@H](CCCCN)NC(=O)[C@H](C)NC(=O)[C@H](Cc2c[nH]c3ccccc23)NC(=O)[C@H](CCCNC(=N)N)NC(=O)[C@H](CCC(N)=O)NC(=O)[C@H](CCC(=O)O)NC(=O)[C@H](CCC(N)=O)NC(=O)[C@H](CC(N)=O)NC(=O)[C@H](CC(C)C)NC(=O)[C@H](CC(N)=O)NC(=O)[C@@H]2CCCN2C(=O)[C@H](CC(=O)O)NC(=O)[C@H](C(C)C)NC(=O)CNC(=O)[C@H](C)NC(=O)[C@H](CCC(=O)O)NC(=O)[C@H](CO)NC(=O)[C@H](CCSC)NC(=O)[C@H](CCCNC(=N)N)NC(=O)[C@H](CCCNC(=N)N)NC(=O)[C@H](CC(C)C)NC(=O)[C@@H](NC(=O)[C@H](CCC(N)=O)NC(=O)[C@H](CCSC)NC(=O)[C@H](CC(N)=O)NC(=O)[C@H](Cc2ccccc2)NC(C)=O)CSSC[C@@H](C(N)=O)NC(=O)[C@H](CC(=O)O)NC(=O)[C@H](CC(=O)O)NC(=O)[C@H](CCSC)NC1=O` [Peptide 21] (Ac-FNMQCLRRMSEAGVDPNLNQEQRWAKAKSIMDDC-NH2; disulfide 5-34) it was 1 to 10 µM; in that of `CC[C@H](C)[C@@H]1NC(=O)[C@H](CCCCN)NC(=O)[C@H](C)NC(=O)[C@H](Cc2c[nH]c3ccccc23)NC(=O)[C@H](CCCNC(=N)N)NC(=O)[C@H](CCC(N)=O)NC(=O)[C@H](CCC(=O)O)NC(=O)[C@H](CCC(N)=O)NC(=O)[C@H](CC(N)=O)NC(=O)[C@H](CC(C)C)NC(=O)[C@H](CC(N)=O)NC(=O)[C@@H]2CCCN2C(=O)[C@H](CC(=O)O)NC(=O)[C@H](C(C)C)NC(=O)CNC(=O)[C@H](C)NC(=O)[C@H](CCC(=O)O)NC(=O)[C@H](CO)NC(=O)[C@H](CCSC)NC(=O)[C@H](CCCNC(=N)N)NC(=O)[C@H](CCCNC(=N)N)NC(=O)[C@H](CC(C)C)NC(=O)[C@@H](NC(=O)[C@H](CCC(N)=O)NC(=O)[C@H](CCSC)NC(=O)[C@H](CC(N)=O)NC(=O)[C@H](Cc2ccccc2)NC(C)=O)CSSC[C@@H](C(N)=O)NC(=O)[C@H](CC(=O)O)NC(=O)[C@H](CC(=O)O)NC(=O)[C@H](CCSC)NC(=O)[C@H]([C@@H](C)CC)NC(=O)[C@H](CO)NC(=O)[C@H](C)NC1=O` [Peptide 22] (Ac-FNMQCLRRMSEAGVDPNLNQEQRWAKIASIMDDC-NH2; disulfide 5-34), 1 to 10 µM. Take “Ustekinumab: a humanized antibody that binds IL-23 (p40 subunit), approved for the treatment of psoriasis [reference compound]”: in test [2], the “blocking of binding of IL-23 to IL-12Rβ1” value is listed as “blocked”. This compound came in with a Mouse splenocyte assay in test [3] of 0.06 µg/mL.
